Measurements: publication PMC12203311, “Design, synthesis, in silico and in vitro evaluation of pyrrole–indole hybrids as dual tubulin and aromatase inhibitors with potent anticancer activities” (RSC Advances, 2025)
Where two headings read alike, the source gives them in different places.

Experiments:
[1] = system: COLO 205; assay: NCI60 five-dose screen; type: cell-based, human; conditions: Homo sapiens; for CC50: COLO 205, COLO 205, colon cancer, read-out: LC50 (the source's name); for GI50: COLO 205, colon cancer
[2] = system: 786-0; assay: NCI60 five-dose screen; type: cell-based; conditions: Homo sapiens, 786-0, renal cancer; for CC50: read-out: LC50 (the source's name)
[3] = system: NCI-H23; assay: NCI60 five-dose screen; type: cell-based; conditions: Homo sapiens, NCI-H23, NSC lung cancer; for CC50: read-out: LC50 (the source's name)
[4] = system: OVCAR-3; assay: NCI60 five-dose screen; type: cell-based; conditions: Homo sapiens, OVCAR-3, ovarian cancer; for CC50: read-out: LC50 (the source's name)
[5] = target: T1, Human CYP19 (aromatase) (Homo sapiens, UniProt P11511); assay: Aromatase inhibition assay (DBF fluorometric substrate); type: biochemical; conditions: active defined as IC50 < 12.5 µM
T1 construct: purchased GENTEST, Woburn, MA 456260; host or cells: baculovirus/insect cells
T1 sequence (P11511 1-503): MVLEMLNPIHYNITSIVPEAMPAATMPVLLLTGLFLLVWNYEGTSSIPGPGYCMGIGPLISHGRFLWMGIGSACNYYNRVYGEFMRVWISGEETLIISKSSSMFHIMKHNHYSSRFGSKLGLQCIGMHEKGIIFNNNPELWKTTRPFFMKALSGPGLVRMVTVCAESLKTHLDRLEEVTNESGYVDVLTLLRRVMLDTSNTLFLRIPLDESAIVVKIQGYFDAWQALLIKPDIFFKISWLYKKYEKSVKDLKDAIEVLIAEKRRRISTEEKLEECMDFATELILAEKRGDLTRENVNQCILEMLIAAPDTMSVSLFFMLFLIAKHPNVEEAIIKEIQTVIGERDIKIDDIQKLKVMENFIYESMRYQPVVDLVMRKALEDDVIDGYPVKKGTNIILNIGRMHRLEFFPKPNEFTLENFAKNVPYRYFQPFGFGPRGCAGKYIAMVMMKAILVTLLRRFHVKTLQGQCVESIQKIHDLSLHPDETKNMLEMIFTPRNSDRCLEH
Description: Aromatase enzyme was purchased from GENTEST, Woburn, MA01801, USA (Supersom human CYP19+oxidoreductase, baculovirus/insect cell-expressed; Product No. 456260). The aromatase inhibitory activity was performed using Human CYP19 enzymes and DBF as a fluorometric substrate as described by Stresser, et al.[41] with minor modifications. The mixture, containing 100 µL of cofactor/serial dilution buffer was pre-incubated in 37 °C for 10 min. […] After incubation at 37 °C for 30 min, the reaction was stopped by addition of 50 µL of 2.2 M NaOH. Fluorescence signal was monitored using an excitation wavelength of 490 nm and emission wavelength of 530 nm.

[6] = system: SNB-19; assay: NCI60 five-dose screen; type: cell-based; conditions: Homo sapiens, SNB-19, CNS cancer; for CC50: read-out: LC50 (the source's name)
[7] = system: DU-145; assay: NCI60 five-dose screen; type: cell-based; conditions: Homo sapiens, DU-145, prostate cancer; for CC50: read-out: LC50 (the source's name)
[8] = system: OVCAR-5; assay: NCI60 five-dose screen; type: cell-based; conditions: Homo sapiens, OVCAR-5, ovarian cancer; for CC50: read-out: LC50 (the source's name)
[9] = system: MDA-MB-435; assay: NCI60 five-dose screen; type: cell-based, human; conditions: Homo sapiens; for CC50: MDA-MB-435, MDA-MB-435, melanoma, read-out: LC50 (the source's name); for GI50: MDA-MB-435, melanoma
[10] = system: HL-60 (TB); assay: NCI60 five-dose screen; type: cell-based; conditions: Homo sapiens, leukemia; for CC50: read-out: LC50 (the source's name)
[11] = system: MALME-3M; assay: NCI60 five-dose screen; type: cell-based; conditions: Homo sapiens, melanoma; for CC50: read-out: LC50 (the source's name)
[12] = system: SNB-75; assay: NCI60 five-dose screen; type: cell-based; conditions: Homo sapiens, SNB-75, CNS cancer; for CC50: read-out: LC50 (the source's name)
[13] = system: A549/ATCC; assay: NCI60 five-dose screen; type: cell-based; conditions: Homo sapiens, NSC lung cancer; for CC50: read-out: LC50 (the source's name)
[14] = system: TK-10; assay: NCI60 five-dose screen; type: cell-based; conditions: Homo sapiens, TK-10, renal cancer; for CC50: read-out: LC50 (the source's name)
[15] = system: LOX IMVI; assay: NCI60 five-dose screen; type: cell-based; conditions: Homo sapiens, melanoma; for CC50: read-out: LC50 (the source's name)
[16] = system: HS 578T; assay: NCI60 five-dose screen; type: cell-based; conditions: Homo sapiens, breast cancer; for CC50: read-out: LC50 (the source's name)
[17] = system: MDA-MB-468; assay: NCI60 five-dose screen; type: cell-based; conditions: Homo sapiens, MDA-MB-468, breast cancer; for CC50: read-out: LC50 (the source's name)
[18] = system: SF-268; assay: NCI60 five-dose screen; type: cell-based; conditions: Homo sapiens, SF-268, CNS cancer; for CC50: read-out: LC50 (the source's name)
[19] = system: SK-OV-3; assay: NCI60 five-dose screen; type: cell-based; conditions: Homo sapiens, SK-OV-3, ovarian cancer; for CC50: read-out: LC50 (the source's name)
[20] = system: NCI-H226; assay: NCI60 five-dose screen; type: cell-based; conditions: Homo sapiens, NCI-H226, NSC lung cancer; for CC50: read-out: LC50 (the source's name)
[21] = system: HCC-2998; assay: NCI60 five-dose screen; type: cell-based; conditions: Homo sapiens, HCC-2998, colon cancer; for CC50: read-out: LC50 (the source's name)
[22] = system: BT-549; assay: NCI60 five-dose screen; type: cell-based; conditions: Homo sapiens, BT-549, breast cancer; for CC50: read-out: LC50 (the source's name)
[23] = system: SK-MEL-5; assay: NCI60 five-dose screen; type: cell-based, human; conditions: for CC50: read-out: LC50 (the source's name)
[24] = system: UACC-62; assay: NCI60 five-dose screen; type: cell-based; conditions: Homo sapiens, UACC-62, melanoma; for CC50: read-out: LC50 (the source's name)
[25] = system: CAKI-1; assay: NCI60 five-dose screen; type: cell-based; conditions: Homo sapiens, CAKI-1, renal cancer; for CC50: read-out: LC50 (the source's name)
[26] = Homo sapiens, SK-MEL-5, SK-MEL-5, melanoma
[27] = Homo sapiens, SK-MEL-5, melanoma

## O=C(N/N=C/c1cc[nH]c1)c1[nH]c2ccc(Br)cc2c1-c1ccccc1 [Derivative 3b, (E)-N′-((1H-Pyrrol-3-yl)methylene)-5-bromo-3-phenyl-1H-indole-2-carbohydrazide]
[1]
  CC50: 20.4 µM
  GI50: 1.23 µM
[2]
  GI50: 5.46 µM
  CC50: 77.2 µM
[3]
  GI50: 1.87 µM
  CC50: 33.9 µM
[4]
  GI50: 1.09 µM
  CC50: 31.9 µM
[5]
  IC50: 11 ± 1.3 µM
[6]
  GI50: 2.55 µM
  CC50: 39.8 µM
[7]
  GI50: 1.95 µM
  CC50: 34.7 µM
[8]
  GI50: 1.74 µM
  CC50: 38.5 µM
[9]
  CC50: 15.8 µM
  GI50: 0.463 µM
[10]
  GI50: 0.598 µM
  CC50: > 100 µM
[11]
  GI50: 3.46 µM
  CC50: 48.3 µM
[12]
  GI50: 0.88 µM
  CC50: 32 µM
[13]
  GI50: 1.61 µM
  CC50: 52.6 µM
[14]
  GI50: 11.1 µM
  CC50: 58 µM
[15]
  GI50: 0.916 µM
  CC50: 38.7 µM
[16]
  GI50: 1.31 µM
  CC50: > 100 µM
[17]
  GI50: 0.593 µM
  CC50: 24.2 µM
[18]
  GI50: 2.41 µM
  CC50: 59.1 µM
[19]
  GI50: 5.59 µM
  CC50: 71.9 µM
[20]
  GI50: 2.52 µM
  CC50: 51.2 µM
[21]
  GI50: 1.55 µM
  CC50: 32.7 µM
[22]
  GI50: 4.53 µM
  CC50: 52.3 µM
[23]; [26]
  CC50: 14.6 µM
[23]; [27]
  GI50: 1.1 µM
[24]
  GI50: 1.03 µM
  CC50: 41.3 µM
[25]
  GI50: 0.776 µM
  CC50: 44.1 µM

## Cc1cc(C)c(/C=N/NC(=O)c2[nH]c3ccc(Br)cc3c2-c2ccccc2)[nH]1 [Derivative 3c, (E)-5-Bromo-N′-((3,5-dimethyl-1H-pyrrol-2-yl)methylene)-3-phenyl-1H-2-carbohydrazide]
[1]
  CC50: 52.3 µM
  GI50: 3.25 µM
[2]
  GI50: 5.19 µM
  CC50: 63.9 µM
[3]
  GI50: 2.59 µM
  CC50: 35.2 µM
[4]
  GI50: 2.53 µM
  CC50: 36.4 µM
[5]
  IC50: 11.1 ± 2 µM
[6]
  GI50: 3.86 µM
  CC50: 39.4 µM
[7]
  GI50: 4.07 µM
  CC50: 38.9 µM
[8]
  GI50: 3.63 µM
  CC50: 37.6 µM
[9]
  CC50: 34 µM
  GI50: 2.84 µM
[10]
  GI50: 2.4 µM
  CC50: > 100 µM
[11]
  GI50: 3.16 µM
  CC50: 38.5 µM
[12]
  GI50: 2.68 µM
  CC50: 43.9 µM
[13]
  GI50: 3.82 µM
  CC50: 45.4 µM
[14]
  GI50: 7.32 µM
  CC50: 45.2 µM
[15]
  GI50: 2.43 µM
  CC50: 30.2 µM
[16]
  GI50: 2.31 µM
  CC50: > 100 µM
[17]
  GI50: 2 µM
  CC50: 26.4 µM
[18]
  GI50: 2.98 µM
  CC50: 53.2 µM
[19]
  GI50: 6.81 µM
  CC50: 70.8 µM
[20]
  GI50: 2.58 µM
  CC50: 34.4 µM
[21]
  GI50: 3.55 µM
  CC50: 37.2 µM
[22]
  GI50: 5.04 µM
  CC50: 47.9 µM
[23]; [26]
  CC50: 19.3 µM
[23]; [27]
  GI50: 2.52 µM
[23]; SK-MEL-5, melanoma
  CC50: 28.8 µM
[24]
  GI50: 2.36 µM
  CC50: 32.4 µM
[25]
  GI50: 3.17 µM
  CC50: 39.1 µM
